ChEMBL document CHEMBL1146674, “Effective irreversible alkylating reagents based on the structure of clavulones” (Bioorg Med Chem Lett, 2004)

System: HeLa
Assay: Cytotoxicity in HeLa S3 cells (human uterocervical carcinoma) was determined
Type: functional, cell-based
[1] = Homo sapiens, HeLa, read-out: IC50

SMILES	IC50 [1] [µM]	IC50 (hela) [µM]
CC(=O)OC1(CC#Cc2ccccc2)C=CC(=O)C1=Cc1ccccc1 (stereo unspecified)	0.024	
O=C1CC(SCCO)/C(=C\C#Cc2ccccc2)C1C(SCCO)c1ccccc1 (stereo unspecified)		> 1000
O=C1CC(SCCO)C(O)(CC#Cc2ccccc2)/C1=C/c1ccccc1 (stereo unspecified)	0.021	
O=C1CC(SCCO)/C(=C/C#Cc2ccccc2)C1C(SCCO)c1ccccc1 (stereo unspecified)		> 1000
O=C1C=CC(CC#Cc2ccccc2)(OC2CCCCO2)/C1=C/c1ccccc1 (stereo unspecified)	1.1	
O=C1C=CC(O)(CC#Cc2ccccc2)/C1=C/c1ccccc1 (stereo unspecified)	0.015	
